{"source": "patent US11672788B2", "about": "“Histone deacetylase inhibitors for immunomodulation in tumor microenvironment” (GREAT NOVEL THERAPEUTICS BIOTECH & MEDICALS CORPORATION, priority 2020, dated 2023)", "key": {"HDAC6": {"target": "HDAC6 (Homo sapiens (Human), UniProt Q9UBN7)", "sequence (Q9UBN7 whole entry)": "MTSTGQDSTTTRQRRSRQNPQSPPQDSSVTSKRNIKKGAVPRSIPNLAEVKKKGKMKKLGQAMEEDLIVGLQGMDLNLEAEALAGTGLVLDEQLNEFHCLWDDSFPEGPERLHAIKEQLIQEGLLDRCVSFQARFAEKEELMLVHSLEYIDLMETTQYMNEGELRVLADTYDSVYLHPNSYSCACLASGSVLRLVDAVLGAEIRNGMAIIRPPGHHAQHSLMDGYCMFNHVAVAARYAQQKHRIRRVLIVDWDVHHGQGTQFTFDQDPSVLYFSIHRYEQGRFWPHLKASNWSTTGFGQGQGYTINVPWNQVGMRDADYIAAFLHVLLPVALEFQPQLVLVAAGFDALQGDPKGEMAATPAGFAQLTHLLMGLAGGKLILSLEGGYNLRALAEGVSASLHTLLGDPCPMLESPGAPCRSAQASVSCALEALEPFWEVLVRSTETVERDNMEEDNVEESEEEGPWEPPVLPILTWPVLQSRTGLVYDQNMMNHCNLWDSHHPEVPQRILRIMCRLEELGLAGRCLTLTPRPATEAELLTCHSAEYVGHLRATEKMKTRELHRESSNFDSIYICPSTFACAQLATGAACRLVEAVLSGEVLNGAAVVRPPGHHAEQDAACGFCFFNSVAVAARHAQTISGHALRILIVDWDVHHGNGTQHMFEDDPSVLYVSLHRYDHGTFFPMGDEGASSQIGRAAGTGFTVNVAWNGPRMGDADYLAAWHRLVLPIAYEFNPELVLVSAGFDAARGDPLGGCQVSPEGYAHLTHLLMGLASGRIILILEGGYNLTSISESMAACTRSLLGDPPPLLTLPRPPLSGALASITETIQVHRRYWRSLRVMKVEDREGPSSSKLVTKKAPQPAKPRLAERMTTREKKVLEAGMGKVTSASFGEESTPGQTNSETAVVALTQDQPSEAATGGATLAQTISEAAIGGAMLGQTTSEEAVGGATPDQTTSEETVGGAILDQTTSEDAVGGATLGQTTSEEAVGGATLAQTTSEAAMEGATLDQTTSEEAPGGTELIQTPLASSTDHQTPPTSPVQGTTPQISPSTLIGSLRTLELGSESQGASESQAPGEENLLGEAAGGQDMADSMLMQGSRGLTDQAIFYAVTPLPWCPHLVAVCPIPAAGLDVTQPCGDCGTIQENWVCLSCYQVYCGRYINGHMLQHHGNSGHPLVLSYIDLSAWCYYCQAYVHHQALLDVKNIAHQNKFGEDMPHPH", "assay": "HDACs 1-11 enzymatic inhibition by BPS Bioscience", "experimental": "(§4) HDAC assay was performed according to standard Protocols (Fluorgenic HDACs 1-11 assay kit, BPS Bioscience™). […] After 0.5 h, assay developer was added to the samples and the absorbance was read at fluorogenic wavelength. The relative inhibition to HDACs 1, 2, 3, 4, 5, 6, 7, 8, 9, and 11 activities was determined in each sample. […] All of the compounds were dissolved in DMSO. The serial dilution of the compounds was first performed in 100% DMSO with the highest concentration at 1 mM. Each intermediate compound dilution (in 100% DMSO) would then get directly diluted 10× fold into assay buffer for an intermediate dilution of 10% DMSO in HDAC assay buffer and 5 μl of the dilution was added to a 50 μl reaction so that the final concentration of DMSO is 1% in all of the reactions. The enzymatic reactions for the HDAC enzymes were conducted in duplicate at 37° C. for 30 minutes in a 50 μl mixture containing HDAC assay buffer, 5 μg BSA, an HDAC substrate, a HDAC enzyme and a test compound. After enzymatic reactions, 50 μl of 2×HDAC Developer was added to each well for the HDAC enzymes and the plate was incubated at room temperature for an additional 15 minutes. Fluorescence intensity was measured at an excitation of 360 nm and an emission of 460 nm using a Tecan Infinite M1000 microplate reader. HDAC activity assays were performed in duplicate at each concentration. The fluorescent intensity data were analyzed using the computer software, Graphpad Prism. In the absence of the compound, the fluorescent intensity (Ft) in each data set was defined as 100% activity. In the absence of HDAC, the fluorescent intensity (Fb) in each data set was defined as 0% activity. The percent activity in the presence of each compound was calculated according to the following equation: % activity=(F−Fb)/(Ft−Fb), where F=the fluorescent intensity in the presence of the compound. […] The IC50 value was determined by the concentration causing a half-maximal percent activity."}, "HDAC3": {"target": "HDAC3 (Homo sapiens (Human), UniProt O15379)", "assay": "HDAC3 enzymatic kinetic assay", "type": "biochemical", "conditions": "2 μM; 20 min, 40 min and 60 min", "method": "HDAC3 enzymatic kinetic assay was performed according to standard Protocols (Fluorgenic HDAC3 assay kit, BPS Bioscience™). […] After incubation, assay developer was added to the samples and the absorbance was read at fluorogenic wavelength. The relative inhibition to HDAC3 activity in each sample was determined."}, "HDAC9": {"target": "HDAC9 (Homo sapiens (Human), UniProt Q9UKV0)", "sequence (Q9UKV0 whole entry)": "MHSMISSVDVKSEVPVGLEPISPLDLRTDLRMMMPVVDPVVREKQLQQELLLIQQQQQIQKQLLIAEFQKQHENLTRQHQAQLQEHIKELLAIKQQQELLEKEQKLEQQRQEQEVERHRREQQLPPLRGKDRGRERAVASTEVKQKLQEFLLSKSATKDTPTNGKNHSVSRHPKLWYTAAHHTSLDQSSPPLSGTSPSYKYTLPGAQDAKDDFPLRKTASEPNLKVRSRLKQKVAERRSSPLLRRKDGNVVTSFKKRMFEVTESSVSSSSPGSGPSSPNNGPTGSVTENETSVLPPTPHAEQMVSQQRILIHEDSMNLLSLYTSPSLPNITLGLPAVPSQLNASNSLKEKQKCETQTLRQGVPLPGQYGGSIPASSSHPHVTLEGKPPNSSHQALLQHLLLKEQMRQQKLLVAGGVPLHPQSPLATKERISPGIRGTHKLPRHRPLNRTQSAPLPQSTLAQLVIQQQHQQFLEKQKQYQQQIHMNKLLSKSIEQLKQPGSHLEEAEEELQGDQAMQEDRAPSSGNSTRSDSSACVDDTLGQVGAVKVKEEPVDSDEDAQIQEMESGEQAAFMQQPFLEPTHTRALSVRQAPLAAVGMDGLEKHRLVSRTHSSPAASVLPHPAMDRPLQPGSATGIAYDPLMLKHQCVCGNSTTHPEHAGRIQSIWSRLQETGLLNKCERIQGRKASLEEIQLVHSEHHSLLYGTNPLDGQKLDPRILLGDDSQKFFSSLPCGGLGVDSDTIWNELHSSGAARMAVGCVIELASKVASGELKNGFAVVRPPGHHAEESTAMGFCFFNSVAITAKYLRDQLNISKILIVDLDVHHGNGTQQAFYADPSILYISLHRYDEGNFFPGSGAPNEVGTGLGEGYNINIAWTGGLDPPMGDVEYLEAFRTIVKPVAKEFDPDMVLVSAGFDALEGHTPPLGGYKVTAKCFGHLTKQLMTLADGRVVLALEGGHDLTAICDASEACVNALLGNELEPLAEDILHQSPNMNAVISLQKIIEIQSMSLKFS", "assay": "HDACs 1-11 enzymatic inhibition by BPS Bioscience", "experimental": "as §4"}, "Saturation solubility": {"assay": "Saturation solubility", "type": "physicochemical", "conditions": "water, thermodynamic from solid, ddH2O, 25° C., mean ± SD, BDL: Below detection limit", "method": "Samples of 5 mg of compounds were added to 5 ml volumetric flasks containing ddH2O and shaken at 100 rpm in an incubator at 25° C. for 90 minutes. The resulting suspension was filtered through a 0.22 μm filter. The concentrations of compounds were determined spectrophotometrically at 256 nm. The saturation solubility of each sample was determined in triplicates and the mean value and standard deviation were reported."}, "HDAC11": {"target": "HDAC11 (Homo sapiens (Human), UniProt Q96DB2)", "sequence (Q96DB2 whole entry)": "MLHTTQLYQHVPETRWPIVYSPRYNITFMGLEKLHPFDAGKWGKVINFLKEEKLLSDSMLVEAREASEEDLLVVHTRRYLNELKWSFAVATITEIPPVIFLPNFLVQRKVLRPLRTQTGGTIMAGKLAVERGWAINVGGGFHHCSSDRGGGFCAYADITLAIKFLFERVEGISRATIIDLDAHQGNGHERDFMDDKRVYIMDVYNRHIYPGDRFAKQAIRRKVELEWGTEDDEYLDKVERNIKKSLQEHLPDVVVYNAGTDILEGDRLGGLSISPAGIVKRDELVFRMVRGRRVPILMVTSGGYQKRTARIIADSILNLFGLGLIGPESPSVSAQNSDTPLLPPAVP", "assay": "HDACs 1-11 enzymatic inhibition by BPS Bioscience", "experimental": "HDAC assay was performed according to standard Protocols (Fluorgenic HDACs 1-11 assay kit, BPS Bioscience™). […] After 0.5 h, assay developer was added to the samples and the absorbance was read at fluorogenic wavelength. The relative inhibition to HDACs 1, 2, 3, 4, 5, 6, 7, 8, 9, and 11 activities was determined in each sample. […] All of the compounds were dissolved in DMSO. The serial dilution of the compounds was first performed in 100% DMSO with the highest concentration at 1 mM. Each intermediate compound dilution (in 100% DMSO) would then get directly diluted 10× fold into assay buffer for an intermediate dilution of 10% DMSO in HDAC assay buffer and 5 μl of the dilution was added to a 50 μl reaction so that the final concentration of DMSO is 1% in all of the reactions. The enzymatic reactions for the HDAC enzymes were conducted in duplicate at 37° C. for 30 minutes in a 50 μl mixture containing HDAC assay buffer, 5 μg BSA, an HDAC substrate, a HDAC enzyme and a test compound. After enzymatic reactions, 50 μl of 2×HDAC Developer was added to each well for the HDAC enzymes and the plate was incubated at room temperature for an additional 15 minutes. Fluorescence intensity was measured at an excitation of 360 nm and an emission of 460 nm using a Tecan Infinite M1000 microplate reader. HDAC activity assays were performed in duplicate at each concentration. The fluorescent intensity data were analyzed using the computer software, Graphpad Prism. In the absence of the compound, the fluorescent intensity (Ft) in each data set was defined as 100% activity. In the absence of HDAC, the fluorescent intensity (Fb) in each data set was defined as 0% activity. The percent activity in the presence of each compound was calculated according to the following equation: % activity=(F−Fb)/(Ft−Fb), where F=the fluorescent intensity in the presence of the compound. The values of % activity versus a series of compound concentrations were then plotted using non-linear regression analysis of Sigmoidal dose-response curve generated with the equation Y=B+(T−B)/1+10((Log EC50−X)×Hill Slope), where Y=percent activity, B=minimum percent activity, T=maximum percent activity, X=logarithm of compound and Hill Slope=slope factor or Hill coefficient. The IC50 value was determined by the concentration causing a half-maximal percent activity."}, "HDAC4": {"target": "HDAC4 (Homo sapiens (Human), UniProt P56524)", "assay": "HDACs 1-11 enzymatic inhibition by BPS Bioscience", "experimental": "as §4"}, "HDAC8": {"target": "HDAC8 (Homo sapiens (Human), UniProt Q9BY41)", "sequence (Q9BY41 whole entry)": "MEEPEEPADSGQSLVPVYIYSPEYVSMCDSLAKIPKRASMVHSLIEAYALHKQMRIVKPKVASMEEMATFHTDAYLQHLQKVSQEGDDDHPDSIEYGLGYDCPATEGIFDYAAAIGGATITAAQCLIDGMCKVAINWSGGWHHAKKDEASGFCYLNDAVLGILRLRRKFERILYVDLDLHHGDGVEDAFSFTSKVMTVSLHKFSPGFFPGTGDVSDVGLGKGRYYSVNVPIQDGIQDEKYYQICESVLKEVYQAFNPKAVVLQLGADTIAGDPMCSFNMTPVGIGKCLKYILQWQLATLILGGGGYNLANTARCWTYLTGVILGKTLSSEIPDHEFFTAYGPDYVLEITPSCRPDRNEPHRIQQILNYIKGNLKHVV", "assay": "HDACs 1-11 enzymatic inhibition by BPS Bioscience", "experimental": "as §4"}, "HDAC3/NCOR2": {"target": "HDAC3/NCOR2 (Homo sapiens (Human), UniProt O15379)", "assay": "HDACs 1-11 enzymatic inhibition by BPS Bioscience", "experimental": "(§5) HDAC assay was performed according to standard Protocols (Fluorgenic HDACs 1-11 assay kit, BPS Bioscience™). […] After 0.5 h, assay developer was added to the samples and the absorbance was read at fluorogenic wavelength. The relative inhibition to HDACs 1, 2, 3, 4, 5, 6, 7, 8, 9, and 11 activities was determined in each sample. […] All of the compounds were dissolved in DMSO. The serial dilution of the compounds was first performed in 100% DMSO with the highest concentration at 1 mM. Each intermediate compound dilution (in 100% DMSO) would then get directly diluted 10× fold into assay buffer for an intermediate dilution of 10% DMSO in HDAC assay buffer and 5 μl of the dilution was added to a 50 μl reaction so that the final concentration of DMSO is 1% in all of the reactions. […] Fluorescence intensity was measured at an excitation of 360 nm and an emission of 460 nm using a Tecan Infinite M1000 microplate reader. […] The fluorescent intensity data were analyzed using the computer software, Graphpad Prism. […] The percent activity in the presence of each compound was calculated according to the following equation: % activity=(F−Fb)/(Ft−Fb), where F=the fluorescent intensity in the presence of the compound. […] The IC50 value was determined by the concentration causing a half-maximal percent activity."}, "SW48 cells [1]": {"test_system": "SW48 cells", "assay": "Cell apoptosis (sub-G1) by PI flow cytometry", "type": "cell-based, human", "conditions": "SW48, 6.25 μM, 72 h", "method": "(§1) A PI/RNase staining assay (BD Bioscience™) was performed to reveal the presence of cell cycle arrest and apoptotic cells after treatment with GNTbm compounds, Chidamide and Entinostat. […] After treatment cells were harvested, fixed with 80% ethanol for 24 h, washed with 1×PBS and stained with PI/RNase for 15 min at room temperature. The cells were then analyzed using Flow Cytometer within 1 h."}, "MDA-MB-231 cells [2]": {"test_system": "MDA-MB-231 cells", "assay": "Cell apoptosis (sub-G1) by PI flow cytometry", "type": "cell-based, human", "conditions": "MDA-MB-231, 6.25 μM, 72 h", "method": "as §1"}, "M10 cells [3]": {"test_system": "M10 cells", "assay": "Cell apoptosis (sub-G1) by PI flow cytometry", "type": "cell-based, human", "conditions": "M10, 12.5 μM, 72 h", "method": "as §1"}, "SK-BR-3": {"test_system": "SK-BR-3", "assay": "In vitro cytotoxicity MTT assay", "type": "cell-based", "conditions": "Homo sapiens, 72 h, IC50 ± SD", "summary_of_the_method": "(§2)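 Plated 96-well (MDA-MB-231 6×10^3; others 2.4×10^4); treated 72 h; MTT.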"}, "NCI-N87": {"test_system": "NCI-N87", "assay": "In vitro cytotoxicity MTT assay", "type": "cell-based", "conditions": "Homo sapiens, 72 h, IC50 ± SD", "summary_of_the_method": "as §2"}, "HDAC7": {"target": "HDAC7 (Homo sapiens (Human), UniProt Q8WUI4)", "sequence (Q8WUI4 whole entry)": "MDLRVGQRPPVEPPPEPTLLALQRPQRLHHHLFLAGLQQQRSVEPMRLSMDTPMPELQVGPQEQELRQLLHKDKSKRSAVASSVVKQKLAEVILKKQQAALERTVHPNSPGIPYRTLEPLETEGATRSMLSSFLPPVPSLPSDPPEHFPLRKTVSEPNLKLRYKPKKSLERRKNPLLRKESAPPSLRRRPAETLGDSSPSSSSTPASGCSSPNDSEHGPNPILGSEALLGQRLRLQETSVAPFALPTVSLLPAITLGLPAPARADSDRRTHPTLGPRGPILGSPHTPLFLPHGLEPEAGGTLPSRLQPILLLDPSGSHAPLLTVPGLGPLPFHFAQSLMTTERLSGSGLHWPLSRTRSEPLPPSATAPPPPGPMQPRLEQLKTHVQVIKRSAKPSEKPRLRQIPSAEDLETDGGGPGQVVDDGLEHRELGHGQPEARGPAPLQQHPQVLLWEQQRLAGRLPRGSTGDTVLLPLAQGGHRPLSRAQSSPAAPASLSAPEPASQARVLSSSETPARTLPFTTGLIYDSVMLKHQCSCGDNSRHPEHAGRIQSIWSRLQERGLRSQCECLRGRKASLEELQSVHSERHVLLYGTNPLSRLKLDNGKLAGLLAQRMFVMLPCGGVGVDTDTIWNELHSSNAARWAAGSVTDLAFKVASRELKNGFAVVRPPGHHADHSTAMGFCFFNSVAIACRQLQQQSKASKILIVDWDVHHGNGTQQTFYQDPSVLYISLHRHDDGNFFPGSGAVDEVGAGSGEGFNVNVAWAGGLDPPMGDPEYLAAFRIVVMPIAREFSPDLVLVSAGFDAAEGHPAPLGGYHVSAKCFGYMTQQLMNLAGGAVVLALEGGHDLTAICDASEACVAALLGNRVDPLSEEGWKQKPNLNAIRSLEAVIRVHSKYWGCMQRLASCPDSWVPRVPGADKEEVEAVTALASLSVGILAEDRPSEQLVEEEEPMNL", "assay": "HDACs 1-11 enzymatic inhibition by BPS Bioscience", "experimental": "as §4"}, "HDAC2": {"target": "HDAC2 (Homo sapiens (Human), UniProt Q92769)", "assay": "HDACs 1-11 enzymatic inhibition by BPS Bioscience", "experimental": "as §5"}, "SW48 cells [4]": {"test_system": "SW48 cells", "assay": "Cell cycle arrest by PI flow cytometry", "type": "cell-based, human", "conditions": "SW48, 3.125 μM, 72 h", "method": "as §1"}, "MDA-MB-231 cells [5]": {"test_system": "MDA-MB-231 cells", "assay": "Cell cycle arrest by PI flow cytometry", "type": "cell-based, human", "conditions": "MDA-MB-231, 3.125 μM, 72 h", "method": "as §1"}, "M10 cells [6]": {"test_system": "M10 cells", "assay": "Cell cycle arrest by PI flow cytometry", "type": "cell-based, human", "conditions": "M10, 12.5 μM, 72 h", "method": "as §1"}, "MDA-MB-231": {"test_system": "MDA-MB-231", "assay": "In vitro cytotoxicity MTT assay", "type": "cell-based, human", "conditions": "Homo sapiens, MDA-MB-231, 72 h, IC50 ± SD", "summary_of_the_method": "as §2"}, "M10": {"test_system": "M10", "assay": "In vitro cytotoxicity MTT assay", "type": "cell-based, human", "conditions": "Homo sapiens, M10, 72 h, IC50 ± SD", "summary_of_the_method": "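Cells were seeded in 96-well plates at 6×10^3 (MDA-MB-231) or 2.4×10^4 (MDA-MB-453, NCI-N87, SW48). Compound exposure lasted 72 h, after which viability was measured by MTT.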"}, "MDA-MB-453": {"test_system": "MDA-MB-453", "assay": "In vitro cytotoxicity MTT assay", "type": "cell-based, human", "conditions": "Homo sapiens, MDA-MB-453, 72 h, IC50 ± SD", "summary_of_the_method": "as §2"}, "SW48": {"test_system": "SW48", "assay": "In vitro cytotoxicity MTT assay", "type": "cell-based, human", "conditions": "Homo sapiens, SW48, 72 h, IC50 ± SD", "summary_of_the_method": "as §2"}, "HDAC5": {"target": "HDAC5 (Homo sapiens (Human), UniProt Q9UQL6)", "sequence (Q9UQL6 whole entry)": "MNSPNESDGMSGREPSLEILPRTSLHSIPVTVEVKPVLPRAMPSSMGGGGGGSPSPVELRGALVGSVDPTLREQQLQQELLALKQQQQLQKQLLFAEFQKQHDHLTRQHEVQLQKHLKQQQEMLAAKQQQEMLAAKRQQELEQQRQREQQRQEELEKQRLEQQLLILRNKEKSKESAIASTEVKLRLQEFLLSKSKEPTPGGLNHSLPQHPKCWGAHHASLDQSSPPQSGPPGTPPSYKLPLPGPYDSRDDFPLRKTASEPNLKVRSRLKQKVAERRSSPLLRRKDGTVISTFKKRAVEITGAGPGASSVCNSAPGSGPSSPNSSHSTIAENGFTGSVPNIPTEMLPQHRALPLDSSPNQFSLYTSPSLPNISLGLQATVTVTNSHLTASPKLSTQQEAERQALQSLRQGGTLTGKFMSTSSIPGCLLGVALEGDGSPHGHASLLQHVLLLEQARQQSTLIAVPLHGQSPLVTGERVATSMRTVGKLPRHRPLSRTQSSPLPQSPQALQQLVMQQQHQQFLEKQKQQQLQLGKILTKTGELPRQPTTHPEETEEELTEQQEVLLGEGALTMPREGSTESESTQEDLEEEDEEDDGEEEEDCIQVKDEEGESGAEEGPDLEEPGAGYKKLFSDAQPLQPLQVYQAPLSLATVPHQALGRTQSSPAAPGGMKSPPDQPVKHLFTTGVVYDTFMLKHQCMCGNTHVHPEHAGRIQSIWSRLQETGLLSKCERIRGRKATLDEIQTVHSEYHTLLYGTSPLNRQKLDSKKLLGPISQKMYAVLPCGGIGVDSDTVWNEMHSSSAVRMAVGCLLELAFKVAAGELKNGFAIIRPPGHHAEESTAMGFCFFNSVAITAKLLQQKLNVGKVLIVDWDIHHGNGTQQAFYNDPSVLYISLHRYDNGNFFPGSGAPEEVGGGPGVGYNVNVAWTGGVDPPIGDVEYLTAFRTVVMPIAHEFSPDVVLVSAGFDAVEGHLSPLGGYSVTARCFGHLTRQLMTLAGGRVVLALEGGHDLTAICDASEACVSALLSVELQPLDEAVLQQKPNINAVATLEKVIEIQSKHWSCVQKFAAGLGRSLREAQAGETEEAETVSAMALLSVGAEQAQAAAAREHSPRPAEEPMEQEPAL", "assay": "HDACs 1-11 enzymatic inhibition by BPS Bioscience", "experimental": "as §4"}, "HDAC1": {"target": "HDAC1 (Homo sapiens (Human), UniProt Q13547)", "assay": "HDACs 1-11 enzymatic inhibition by BPS Bioscience", "experimental": "as §5"}, "SW48 cells [7]": {"test_system": "SW48 cells", "assay": "Cell proliferation and morphology by phase-contrast light microscopy", "type": "cell-based, human", "conditions": "SW48, 3.125 μM, 72 h", "description": "(§3) (FIG. 3A) MDA-MB-231 cells, (FIG. 3B) SW48 cells, (FIG. 3C) M10 cells."}, "MDA-MB-231 cells [8]": {"test_system": "MDA-MB-231 cells", "assay": "Cell proliferation and morphology by phase-contrast light microscopy", "type": "cell-based, human", "conditions": "MDA-MB-231, 12.5 μM, 72 h", "description": "as §3"}, "M10 cells [9]": {"test_system": "M10 cells", "assay": "Cell proliferation and morphology by phase-contrast light microscopy", "type": "cell-based, human", "conditions": "M10, 12.5 μM", "description": "as §3"}}, "note": "“Also recorded” adds a separate entry of the source."}
{"smiles": "Cc1ccc(/C=C/CC(=O)Nc2ccc(C(=O)Nc3ccc(F)cc3N)nc2)cn1", "note": "[GNTbm-02, 5-((E)-4-(6-methylpyridin-3-yl)but-3-enamido)-N-(2-amino-4-fluorophenyl)pyridine-2-carboxamide]", "values": [{"measurement": "IC50", "setting": "HDAC6", "result": "> 10", "unit": "µM"}, {"measurement": "HDAC6 Inhibition at 10 μM", "setting": "HDAC6; 10 μM", "result": "not inhibited; also recorded: No Inhibition at 10 μM"}, {"measurement": "Inhibition of HDAC 3 enzyme activities (kinetics)", "setting": "HDAC3", "result": "stronger inhibition of HDAC 3 enzyme activities than Entinostat; also recorded: stronger inhibition of HDAC 3 enzyme activities than GNTbm-01"}, {"measurement": "IC50", "setting": "HDAC9", "result": "> 10", "unit": "µM"}, {"measurement": "HDAC9 Inhibition at 10 μM", "setting": "HDAC9; 10 μM", "result": "not inhibited; also recorded: No Inhibition at 10 μM"}, {"measurement": "solubility at 90 min", "setting": "Saturation solubility", "result": 33.6, "unit": "µg/mL"}, {"measurement": "IC50", "setting": "HDAC11", "result": "> 10", "unit": "µM"}, {"measurement": "HDAC11 Inhibition at 10 μM", "setting": "HDAC11; 10 μM", "result": "not inhibited; also recorded: No Inhibition at 10 μM"}, {"measurement": "IC50", "setting": "HDAC4", "result": "> 10", "unit": "µM"}, {"measurement": "HDAC4 Inhibition at 10 μM", "setting": "HDAC4; 10 μM", "result": "not inhibited; also recorded: No Inhibition at 10 μM"}, {"measurement": "IC50", "setting": "HDAC8", "result": "> 10", "unit": "µM"}, {"measurement": "HDAC8 Inhibition at 10 μM", "setting": "HDAC8; 10 μM", "result": "not inhibited; also recorded: No Inhibition at 10 μM"}, {"measurement": "IC50", "setting": "HDAC3/NCOR2", "result": 0.73, "unit": "µM"}, {"measurement": "Induction of apoptosis (sub-G1 phase)", "setting": "SW48 cells [1]", "result": "significantly induced apoptosis"}, {"measurement": "Induction of apoptosis (sub-G1 phase)", "setting": "MDA-MB-231 cells [2]", "result": "significantly induced apoptosis"}, {"measurement": "Induction of apoptosis (sub-G1 phase)", "setting": "M10 cells [3]", "result": "significantly induced apoptosis in M10 cells"}, {"measurement": "IC50", "setting": "SK-BR-3", "result": "2 ± 0.015", "unit": "µM"}, {"measurement": "IC50", "setting": "NCI-N87", "result": "4.01 ± 0.49", "unit": "µM"}, {"measurement": "IC50", "setting": "HDAC7", "result": "> 10", "unit": "µM"}, {"measurement": "HDAC7 Inhibition at 10 μM", "setting": "HDAC7; 10 μM", "result": "not inhibited; also recorded: No Inhibition at 10 μM"}, {"measurement": "IC50", "setting": "HDAC2", "result": 0.91, "unit": "µM"}, {"measurement": "Cell cycle arrest", "setting": "SW48 cells [4]", "result": "significantly induced cell cycle arrest in G0/G1 phase"}, {"measurement": "Cells in G0/G1 phase", "setting": "SW48 cells [4]", "result": 76.9, "unit": "%"}, {"measurement": "Cell cycle arrest", "setting": "MDA-MB-231 cells [5]", "result": "significantly induced cell cycle arrest in G0/G1 phase"}, {"measurement": "Cell cycle arrest", "setting": "M10 cells [6]", "result": "significantly induced cell cycle arrest of M10 cells in the G2/M phase"}, {"measurement": "Cells in G2/M phase", "setting": "M10 cells [6]", "result": 16.2, "unit": "%"}, {"measurement": "IC50", "setting": "MDA-MB-231", "result": "13.5 ± 1.78", "unit": "µM"}, {"measurement": "IC50", "setting": "M10", "result": "4.31 ± 0.16", "unit": "µM"}, {"measurement": "IC50", "setting": "MDA-MB-453", "result": "1.69 ± 0.008", "unit": "µM"}, {"measurement": "IC50", "setting": "SW48", "result": "2.51 ± 0.11", "unit": "µM"}, {"measurement": "IC50", "setting": "HDAC5", "result": "> 10", "unit": "µM"}, {"measurement": "HDAC5 Inhibition at 10 μM", "setting": "HDAC5; 10 μM", "result": "not inhibited; also recorded: No Inhibition at 10 μM"}, {"measurement": "IC50", "setting": "HDAC1", "result": 0.39, "unit": "µM"}, {"measurement": "Inhibition of cell proliferation", "setting": "SW48 cells [7]", "result": "inhibitory effect was more obvious for SW48 cells"}, {"measurement": "Inhibition of cell proliferation", "setting": "MDA-MB-231 cells [8]", "result": "significantly inhibiting cell proliferation"}, {"measurement": "Inhibition of cell proliferation", "setting": "M10 cells [9]", "result": "significantly inhibited cell proliferation"}]}
